From the NIST ThermoML archive (doi:10.1021/je0341918)
± gives the expanded uncertainty stated by the source.

Assay: xn = mol fraction of the nth substance listed
Conditions: 101.3 kPa, Liquid

OCCCCO [1,4-butanediol] + O
Conditions | mass density [kg/m3] | viscosity [mPa·s]
293.15 K, x1 = 0.0218 | 1001.44 ± 0.26 | 1.792 ± 0.17
293.15 K, x1 = 0.0478 | 1005.97 ± 0.27 | 2.65 ± 0.24
293.15 K, x1 = 0.0789 | 1010.98 ± 0.29 | 3.889 ± 0.34
293.15 K, x1 = 0.1175 | 1015.71 ± 0.3 | 5.788 ± 0.48
293.15 K, x1 = 0.1665 | 1019.86 ± 0.32 | 8.755 ± 0.67
293.15 K, x1 = 0.2305 | 1022.86 ± 0.33 | 11.86 ± 0.86
293.15 K, x1 = 0.3179 | 1024.32 ± 0.33 | 19.07 ± 1.3
293.15 K, x1 = 0.4441 | 1024.18 ± 0.34 | 31.72 ± 2.1
293.15 K, x1 = 0.6426 | 1021.57 ± 0.34 | 56.69 ± 2
293.15 K, x1 = 0.7917 | 1019.04 ± 0.34 | 73.61 ± 7.9
293.15 K, x1 = 0.8663 | 1017.74 ± 0.34 | 80.53 ± 11
293.15 K, x1 = 1 | 1015.76 ± 0.35 | 90.33 ± 15
303.15 K, x1 = 0.0218 | 998.53 ± 0.26 | 1.418 ± 0.14
303.15 K, x1 = 0.0478 | 1002.4 ± 0.26 | 1.957 ± 0.18
303.15 K, x1 = 0.0789 | 1006.62 ± 0.27 | 2.756 ± 0.25
303.15 K, x1 = 0.1175 | 1010.6 ± 0.29 | 3.954 ± 0.35
303.15 K, x1 = 0.1665 | 1014.11 ± 0.3 | 5.775 ± 0.48
303.15 K, x1 = 0.2305 | 1016.62 ± 0.31 | 7.633 ± 0.6
303.15 K, x1 = 0.3179 | 1017.88 ± 0.31 | 12.09 ± 0.88
303.15 K, x1 = 0.4441 | 1017.65 ± 0.32 | 19.66 ± 1.4
303.15 K, x1 = 0.6426 | 1015.15 ± 0.32 | 34.96 ± 2.3
303.15 K, x1 = 0.7917 | 1012.77 ± 0.32 | 45.5 ± 3
303.15 K, x1 = 0.8663 | 1011.48 ± 0.32 | 49.82 ± 3.2
303.15 K, x1 = 1 | 1009.54 ± 0.33 | 55.98 ± 1.9
313.15 K, x1 = 0.0218 | 994.86 ± 0.27 | 1.176 ± 0.11
313.15 K, x1 = 0.0478 | 998.21 ± 0.26 | 1.522 ± 0.14
313.15 K, x1 = 0.0789 | 1001.79 ± 0.26 | 2.053 ± 0.19
313.15 K, x1 = 0.1175 | 1005.16 ± 0.27 | 2.835 ± 0.26
313.15 K, x1 = 0.1665 | 1008.13 ± 0.28 | 4.008 ± 0.35
313.15 K, x1 = 0.2305 | 1010.28 ± 0.29 | 5.198 ± 0.45
313.15 K, x1 = 0.3179 | 1011.36 ± 0.29 | 8.018 ± 0.62
313.15 K, x1 = 0.4441 | 1011.09 ± 0.3 | 12.78 ± 0.92
313.15 K, x1 = 0.6426 | 1008.76 ± 0.3 | 22.43 ± 1.5
313.15 K, x1 = 0.7917 | 1006.4 ± 0.3 | 29.65 ± 2
313.15 K, x1 = 0.8663 | 1005.15 ± 0.3 | 32.53 ± 2.2
313.15 K, x1 = 1 | 1003.31 ± 0.31 | 35.74 ± 2.4
323.15 K, x1 = 0.0218 | 990.45 ± 0.28 | 0.981 ± 0.097
323.15 K, x1 = 0.0478 | 993.4 ± 0.27 | 1.222 ± 0.12
323.15 K, x1 = 0.0789 | 996.45 ± 0.26 | 1.573 ± 0.15
323.15 K, x1 = 0.1175 | 999.34 ± 0.25 | 2.124 ± 0.2
323.15 K, x1 = 0.1665 | 1001.87 ± 0.26 | 2.909 ± 0.26
323.15 K, x1 = 0.2305 | 1003.72 ± 0.27 | 3.683 ± 0.33
323.15 K, x1 = 0.3179 | 1004.68 ± 0.27 | 5.573 ± 0.47
323.15 K, x1 = 0.4441 | 1004.42 ± 0.28 | 8.706 ± 0.67
323.15 K, x1 = 0.6426 | 1002.32 ± 0.28 | 14.6 ± 1
323.15 K, x1 = 0.7917 | 1000 ± 0.28 | 19.29 ± 1.3
323.15 K, x1 = 0.8663 | 998.84 ± 0.29 | 21.11 ± 1.4
323.15 K, x1 = 1 | 997.14 ± 0.31 | 23.63 ± 1.6
333.15 K, x1 = 0.0218 | 985.4 ± 0.3 | 0.871 ± 0.088
333.15 K, x1 = 0.0478 | 987.96 ± 0.29 | 1.042 ± 0.1
333.15 K, x1 = 0.0789 | 990.59 ± 0.28 | 1.281 ± 0.12
333.15 K, x1 = 0.1175 | 993.09 ± 0.27 | 1.652 ± 0.15
333.15 K, x1 = 0.1665 | 995.27 ± 0.27 | 2.191 ± 0.2
333.15 K, x1 = 0.2305 | 996.89 ± 0.27 | 2.705 ± 0.24
333.15 K, x1 = 0.3179 | 997.78 ± 0.27 | 4.017 ± 0.35
333.15 K, x1 = 0.4441 | 997.58 ± 0.27 | 6.143 ± 0.51
333.15 K, x1 = 0.6426 | 995.75 ± 0.29 | 10.12 ± 0.76
333.15 K, x1 = 0.7917 | 993.6 ± 0.3 | 13.04 ± 0.94
333.15 K, x1 = 0.8663 | 992.48 ± 0.31 | 14.29 ± 1
333.15 K, x1 = 1 | 990.93 ± 0.32 | 16.17 ± 1.1
343.15 K, x1 = 0.0218 | 979.61 ± 0.31 | 0.783 ± 0.08
343.15 K, x1 = 0.0478 | 981.88 ± 0.31 | 0.905 ± 0.091
343.15 K, x1 = 0.0789 | 984.16 ± 0.3 | 1.081 ± 0.11
343.15 K, x1 = 0.1175 | 986.37 ± 0.3 | 1.338 ± 0.13
343.15 K, x1 = 0.1665 | 988.29 ± 0.29 | 1.719 ± 0.16
343.15 K, x1 = 0.2305 | 989.74 ± 0.29 | 2.055 ± 0.19
343.15 K, x1 = 0.3179 | 990.6 ± 0.29 | 2.991 ± 0.27
343.15 K, x1 = 0.4441 | 990.49 ± 0.29 | 4.471 ± 0.39
343.15 K, x1 = 0.6426 | 988.97 ± 0.31 | 7.211 ± 0.57
343.15 K, x1 = 0.7917 | 987.21 ± 0.32 | 9.223 ± 0.7
343.15 K, x1 = 0.8663 | 986.17 ± 0.33 | 10.11 ± 0.75
343.15 K, x1 = 1 | 984.81 ± 0.34 | 11.45 ± 0.84
353.15 K, x1 = 0.0218 | 973.52 ± 0.33 | 0.723 ± 0.075
353.15 K, x1 = 0.0478 | 975.53 ± 0.33 | 0.809 ± 0.082
353.15 K, x1 = 0.0789 | 977.47 ± 0.32 | 0.94 ± 0.094
353.15 K, x1 = 0.1175 | 979.3 ± 0.32 | 1.108 ± 0.11
353.15 K, x1 = 0.1665 | 981.05 ± 0.31 | 1.381 ± 0.13
353.15 K, x1 = 0.2305 | 982.41 ± 0.31 | 1.804 ± 0.17
353.15 K, x1 = 0.3179 | 983.3 ± 0.31 | 2.283 ± 0.21
353.15 K, x1 = 0.4441 | 983.33 ± 0.32 | 3.358 ± 0.3
353.15 K, x1 = 0.6426 | 982.14 ± 0.33 | 5.276 ± 0.45
353.15 K, x1 = 0.7917 | 980.68 ± 0.34 | 6.743 ± 0.54
353.15 K, x1 = 0.8663 | 979.77 ± 0.35 | 7.321 ± 0.58
353.15 K, x1 = 1 | 978.59 ± 0.36 | 8.28 ± 0.64
